For the data set the following is noted: pampa; 60.0 min; 50.0 µM.
The compound `CN1CCCC(=C(c2cccs2)c2cccs2)C1` gave an apparent permeability coefficient (Papp) below 1 ×10⁻⁶ cm/s.
With `CCOc1ccc2ccccc2c1C(=O)N[C@@H]1C(=O)N2[C@@H]1SC(C)(C)[C@@H]2C(=O)O` the figure was below 1 ×10⁻⁶ cm/s; with `Cc1onc(-c2c(F)cccc2Cl)c1C(=O)N[C@@H]1C(=O)N2[C@@H]1SC(C)(C)[C@@H]2C(=O)O`, 28 ×10⁻⁶ cm/s.
As for `O=c1c2c(c1=O)N(CCP(=O)(O)O)CCCN2`, the apparent permeability coefficient (Papp) was below 1 ×10⁻⁶ cm/s.
Take `O=C(NCc1cnccn1)c1ccc(-c2ncc3cnc(-c4cccc(F)c4)cn23)cc1`: the apparent permeability (Papp) was found to be 94 ×10⁻⁶ cm/s.
Consider `CCN(CC)CCCC(C)Nc1ccnc2cc(Cl)ccc12` (centres undefined), for which the apparent permeability coefficient (Papp) was determined as 8 ×10⁻⁶ cm/s.
In turn, `C/C(=C(\CCOC(=O)C(C)C)SS/C(CCOC(=O)C(C)C)=C(/C)N(C=O)Cc1cnc(C)nc1N)N(C=O)Cc1cnc(C)nc1N` gave a Papp of 3 ×10⁻⁶ cm/s.
For `Cc1c2ccncc2c(C)c2c1[nH]c1ccccc12`, the Papp was above 300 ×10⁻⁶ cm/s.
`N=c1c2c(-c3ccccc3)cn(Cc3ccccc3)c2ncn1CCNCCO`: the apparent permeability (Papp) was 3 ×10⁻⁶ cm/s.
Compound `COc1cc(/C=C/C(=O)NCCn2c(C(F)(F)F)cc3ccccc32)cc(OC)c1OC` had an apparent permeability coefficient (Papp) above 300 ×10⁻⁶ cm/s.
Turning to `O=C(O)[C@@H]1C[C@H]2C[C@@H](CCc3nn[nH]n3)CC[C@H]2CN1`, the Papp came to 3 ×10⁻⁶ cm/s.
`CC(=O)Nc1ccc(OC(=O)c2ccccc2OC(C)=O)cc1` showed a Papp of 27 ×10⁻⁶ cm/s.
The compound `COc1ccc(Cn2c(-c3ccccc3)c(-c3ccccc3)c3c(=N)n(N4CCOCC4)cnc32)cc1` returned a Papp of 160 ×10⁻⁶ cm/s.
With `Cc1ccccc1NC(=O)Nc1ccc(CC(=O)N(C)[C@@H](CC(C)C)C(=O)NCC[C@H](NC(=O)[C@@H]2CCCN2S(=O)(=O)c2cc(Cl)cc(Cl)c2)C(=O)O)cc1` the figure was 5 ×10⁻⁶ cm/s; with `CC(=O)c1cc2c(s1)c1cnn(Cc3ccccc3F)c(=O)c1n2C`, above 300 ×10⁻⁶ cm/s; with `COc1ccc(Cn2c(-c3ccccc3)c(-c3ccccc3)c3c(=N)n(CC4CCCO4)cnc32)cc1` (centres undefined), 297 ×10⁻⁶ cm/s.
With `N=c1c2c(-c3ccccc3)c(-c3ccccc3)n(Cc3ccccc3)c2ncn1Cc1ccc2c(c1)OCO2`, the apparent permeability coefficient (Papp) is 3 ×10⁻⁶ cm/s. This Papp lies about 99-fold lower than the previous one.
Regarding `CC1(C)S[C@@H]2[C@H](NC(=O)C3(N)CCCCC3)C(=O)N2[C@H]1C(=O)O`, the Papp was 54 ×10⁻⁶ cm/s. This Papp lies about 18-fold higher than the previous one.
For `CC(C)C[C@@H](C(=O)N[C@@H](Cc1ccc(OCc2ccccc2)cc1)C(=O)NC(C)(C)C)N(C)Cc1ccc(C(C)(C)C)cc1`, the Papp was above 300 ×10⁻⁶ cm/s.
Regarding `O=C(C[C@@H]1NCCC[C@H]1O)Cn1cnc2cc(Br)c(Cl)cc2c1=O`, the apparent permeability coefficient (Papp) turned out to be 43 ×10⁻⁶ cm/s.
Consider `CC[n+]1c(-c2ccccc2)c2cc(N)ccc2c2ccc(N)cc21`, for which the Papp is 2 ×10⁻⁶ cm/s.
Compound `N=c1c2c(-c3ccccc3)cn(Cc3ccccc3)c2ncn1C1CCC(O)CC1` (centres undefined) displayed a Papp of 217 ×10⁻⁶ cm/s.
`Cc1ccnc(NC(c2cccc(O)c2)c2ccc3ccc(C)nc3c2O)c1` (centres undefined) had a Papp of 115 ×10⁻⁶ cm/s. Compared with the last compound, the Papp is about 1.9-fold lower.
`O=C(Nc1ccc2[nH]c(=O)oc2c1)C(=O)N1CCC(Cc2ccc(F)cc2)CC1` displayed a Papp of 207 ×10⁻⁶ cm/s.
In the case of `CCOc1ccc(C2C(C(=O)Nc3ccccc3OC)=C(C)Nc3c(C(=O)Nc4cccc(C)c4)cnn32)cc1` (centres undefined), the apparent permeability (Papp) is 45 ×10⁻⁶ cm/s.
`Cn1c2cc(C=O)sc2c2cnn(Cc3ccccc3F)c(=O)c21` yielded an apparent permeability coefficient (Papp) of 270 ×10⁻⁶ cm/s.
`CC(=O)Nc1c(I)c(C(=O)N[C@H]2C(O)O[C@H](CO)[C@@H](O)[C@@H]2O)c(I)c(N(C)C(C)=O)c1I` (some centres undefined) had an apparent permeability (Papp) of 2 ×10⁻⁶ cm/s.
Take `Cc1[nH]c(/C=C2\C(=O)Nc3ccc(F)cc32)c(C)c1C(=O)NC[C@H](O)CN1CCOCC1`: the Papp was determined as 42 ×10⁻⁶ cm/s.
As for `COc1ccc(CCNC(=O)CCc2c(C)c3cc4c(C)coc4cc3oc2=O)cc1`, the figure is 279 ×10⁻⁶ cm/s; as for `N=c1c2c(-c3ccccc3)cn(Cc3ccccc3)c2ncn1CCCCO`, 110 ×10⁻⁶ cm/s.
`NC(=O)OC[C@@H]1[C@H](NC(=O)/C(=N\OCC(=O)O)c2csc(N)n2)C(=O)N1S(=O)(=O)O` gave an apparent permeability (Papp) below 1 ×10⁻⁶ cm/s.
`O=C(NC1CCC(O)CC1)c1ccc(-c2ncc3cnc(-c4cccc(F)c4)cn23)cc1` (centres undefined) displayed a Papp of 59 ×10⁻⁶ cm/s.
For the compound `CCCN[C@H]1CCc2nc(N)sc2C1`, the Papp worked out at 4 ×10⁻⁶ cm/s.
As for `CO[C@H]1/C=C\C=C(\C)C(=O)NC2=CC(=O)C(NCCN(C)C)=C(C[C@@H](C)C[C@H](OC)[C@H](O)[C@@H](C)/C=C(/C)[C@@H]1OC(N)=O)C2=O`, the Papp was found to be 11.9 ×10⁻⁶ cm/s.
Turning to `COc1ccc(-n2nc(C(F)F)cc2-c2ccc(S(C)=O)cc2)cc1` (centres undefined), the Papp turned out to be 115 ×10⁻⁶ cm/s.
Compound `COc1ccc(N(C)c2nc(C)nc3ccccc23)cc1` came in with a Papp of 220 ×10⁻⁶ cm/s.
Take `Nc1nc(N)c2c(OCC3CCN(Cc4ccccc4F)CC3)cccc2n1`: the apparent permeability (Papp) is 12 ×10⁻⁶ cm/s.
Take `CC1(C)S[C@@H]2[C@H](NC(=O)COc3ccccc3)C(=O)N2[C@H]1C(=O)O`: the apparent permeability (Papp) came to 6 ×10⁻⁶ cm/s.
As for `CNc1oc(-c2cccc(Cl)c2Cl)nc1C#N`, the figure is 124 ×10⁻⁶ cm/s.
In turn, `COCCn1cnc2c(c(-c3ccccc3)c(-c3ccccc3)n2Cc2ccccc2)c1=N` came in with an apparent permeability (Papp) of 174 ×10⁻⁶ cm/s.
As for `CCO/N=C(\C(=O)N[C@@H]1C(=O)N2C(C(=O)O)=C(Sc3nc(-c4cc[n+](C)cc4)cs3)CS[C@H]12)c1nsc(NP(=O)(O)O)n1`, the figure is 2 ×10⁻⁶ cm/s.
The compound `O=C(CBr)N1CC([N+](=O)[O-])([N+](=O)[O-])C1` displayed an apparent permeability (Papp) below 1 ×10⁻⁶ cm/s.
With `CCN(CC)CCNc1ccc(C)c2sc3ccccc3c(=O)c12` the figure was above 300 ×10⁻⁶ cm/s.
Turning to `NCC1(CC(=O)O)CCCCC1`, the apparent permeability coefficient (Papp) was below 1 ×10⁻⁶ cm/s.

The term Papp denotes a coefficient for how fast a substance crosses the barrier.

(Values after PubChem BioAssay AID1845228.)
